{"source": "patent US12180499B2", "about": "“Compositions and methods for impeding transcription of expanded microsatellite repeats” (University of Florida Research Foundation, Inc., priority 2016, dated 2024)", "origin": "cited, not measured here", "tested_on": "expanded CTG repeats", "conditions": "low nanomolar doses; cited from earlier work", "note": "Starred links: 1 amine or outer side, 2 acyl side, 3 side chain; linkers in the order of their positions; H or OH if unused. Positions of bridges follow the written chain, without caps; N, C: chain ends. Non-standard residues stand in square brackets, D forms with d. Residues, ends and D or L forms follow the SMILES beside them. Chains are numbered I, II in the order given. Actinocin(9to1) = Cc1c2oc3c(C)ccc(C(=O)[*:1])c3nc-2c(C(=O)[*:2])c(N)c1=O; NMeV = CN[C@H](C(=O)O)C(C)C; Sar = CNCC(=O)O", "data": [{"smiles": "Cc1c2oc3c(C)ccc(C(=O)N[C@@H]4C(=O)N[C@H](C(C)C)C(=O)N5CCC[C@H]5C(=O)N(C)CC(=O)N(C)[C@@H](C(C)C)C(=O)O[C@@H]4C)c3nc-2c(C(=O)N[C@@H]2C(=O)N[C@H](C(C)C)C(=O)N3CCC[C@H]3C(=O)N(C)CC(=O)N(C)[C@@H](C(C)C)C(=O)O[C@@H]2C)c(N)c1=O", "note": "[actinomycin D] (I: T[dV]P[Sar][NMeV] / II: T[dV]P[Sar][NMeV]; ester I:1-I:C, II:1-II:C; linker I:N-II:N via Actinocin(9to1))", "values": [{"measurement": "transcription of expanded CTG repeats", "result": "preferentially impede transcription of expanded CTG repeats"}]}]}
